# Where “and” joins values, the source holds several entries; their conditions need not be identical. Identical values can stand only once. Entries after “also recorded” stand apart in the source; their conditions may differ.
# Columns and labels:
# [1] = Preliminary assessment of pharmacokinetics in mice; assay type: in vivo, CD-1 mice
# Experimental: Dosing Regimen 9 CD-1 mice, male, weighing 20-26 g, were randomly divided into 3 groups with 3 mice in each group. The test compounds were administered intragastric, intravenously or intraperitoneally according to the following protocol. The mice were fasted for 12 h before the test and drank water freely. Food was consumed uniformly 2 h after administration. [table] The intragastric administration solution was prepared with DMSO/0.5% HPMC(5/95, v/v) to the final concentration. Intravenous and intraperitoneal administration solution was formulated with DMSO/PEG300/EtOH/NaCl(5/40/5/50, v/v/v). The sample of the administration solution was left (50 μL of the solution was mixed with 50 μL of DMSO before and after the administration, respectively) for test. The drug was given according to the above dose, the time of administration was recorded, and 20 μL of blood was taken from the femoral plexus of mice at the above set time points and placed in heparinized tubes. The blood was immediately centrifuged at 11000 rpm for 5 min. 10 μL of plasma was immediately and accurately sucked into a centrifuge tube prefilled with 100 μL of PK-IS solution (prepared with methanol: acetonitrile (1:1,v/v)), well mixed, and freezed at −20° C. for test.
# [2] = test system: GAN diet-induced NASH mouse model; assay: In vivo anti-obesity, insulin resistance, NASH pharmacological activity test; set-up: species or system C57BL/6 mice
# Source text: In this experiment, we investigated the effects of long-term oral administration of compound A1 on obesity, insulin resistance, hepatic lipid accumulation, inflammation and fibrosis in mice with a triple phenotype of obesity, insulin resistance and NASH induced by high fat, high cholesterol and high fructose (Gubra amylin, GAN).
# Animal experiment: Male C57BL/6 mice were fed with GAN diet to induce the NASH model, and 12 weeks after modeling, the mice were randomly divided into 3 groups: low-fat diet control group (LFD, n=6), model control group (Model, n=10), and A1 group (10 mg/kg, n=10), and administered by gavage at a dose of 10 mg/kg and a volume of 10 mL/kg, once a day. During the period of administration, the food intake and body weight of animals were monitored; after 10 weeks of administration, glucose tolerance test (GTT) and insulin tolerance test (ITT) were performed; after 11 weeks of administration, fasting glucose and insulin were measured; after 12 weeks of administration, core body temperature and energy metabolism were measured; after 15 weeks of administration, body composition of mice was measured, and mice were sacrificed by dislocation after blood sampling via the posterior ocular venous plexus, and liver, subcutaneous fat, epididymal fat and brown fat were weighed, part the liver was fixed in 4% paraformaldehyde, and all tissues and serum were stored at −80° C. This experiment evaluated whether the compounds have the effect of weight loss by detecting energy metabolism, body composition, and fat weight of mice; whether the compounds have the effect of improving insulin resistance by GTT, ITT, detecting random blood glucose, fasting blood glucose and fasting insulin, and calculating HOMA-IR index; whether the compounds have the effect of […] by detecting serum liver function indexes ALT, AST, triglyceride, total cholesterol (T-CHO), LDL-C, HDL-C levels in serum, triglyceride, T-CHO, and hydroxyproline (characteristic amino acids of collagen) levels in liver, and by measuring mRNA expression levels of fatty acid ab initio synthesis and transport related genes (Srebp1c, Sed1, Fasn, Acaca, Cd36),β-oxidative metabolic pathways (Ppara, Cyp4A1,Cpt1b,Acot1,Acox1), inflammation related genes (Tnfa, Il1b, Casp1, Nlrp3, Pycard, Panx1, Cel2, Cel3) and fibrosis-related genes (Asma, Tgfb, Col1A1, Col3A1 , Col4A1 , Col4a2, Col5a2) and liver pathological changes (H&E staining, Oil Red O staining and Sirius Scarlet staining) and other indicators to evaluate whether the compounds have the effect of alleviating the disorder of lipid metabolism, inflammation and fibrosis in the pathological state of NASH.
# [3] = 10 mg/kg gavage once a day, 15 weeks
# [4] = 10 mg/kg gavage once a day, after 10 weeks
# [5] = 10 mg/kg gavage once a day, after 11 weeks
# [6] = 10 mg/kg gavage once a day, vs Model group
# [7] = H&E-stained liver pathology sections, 10 mg/kg
# [8] = liver, 10 mg/kg gavage once a day
# [9] = overall statement, long-term administration
structure (smiles),measurement,setting,value
"CC(C)Oc1ccc(-c2nc(-c3ccc(CN4CC(C(=O)O)C4)c4ccccc34)no2)cc1C#N.Cl [Compound A1, 1-((4-(5-(3-cyano-4-isopropoxyphenyl)-1,2,4-oxadiazol-3-yl)naphthalen-1-yl)methyl) azetidine-3-carboxylic acid hydrochloric acid]",Concentration of A1 Drug in Plasma of Mice,"[1]; title: intraperitoneal 20 mg/kg, 24.0 h, individual animals 1-3",3.80 ng/mL
same,Concentration of A1 Drug in Plasma of Mice,"[1]; title: oral 2 mg/kg, 0.05 h, individual animals 4-6, 2 mg/kg",1521 ng/mL and 2513 ng/mL
same,Concentration of A1 Drug in Plasma of Mice,"[1]; title: oral 2 mg/kg, 0.25 h, individual animals 4-6, 2 mg/kg",572 ng/mL and 1021 ng/mL
same,Concentration of A1 Drug in Plasma of Mice,"[1]; title: oral 2 mg/kg, 0.75 h, individual animals 4-6, 2 mg/kg",113 ng/mL and 216 ng/mL
same,Concentration of A1 Drug in Plasma of Mice,"[1]; title: oral 2 mg/kg, 2.00 h, individual animals 4-6, 2 mg/kg",39.5 ng/mL and 60.6 ng/mL
same,Concentration of A1 Drug in Plasma of Mice,"[1]; title: oral 2 mg/kg, 4.00 h, individual animals 4-6, 2 mg/kg",8.60 ng/mL and 11.5 ng/mL and 5.20 ng/mL
same,Concentration of A1 Drug in Plasma of Mice,"[1]; title: oral 2 mg/kg, 8.00 h, individual animals 4-6, 2 mg/kg",8.70 ng/mL and 2.10 ng/mL and 1.10 ng/mL
same,Concentration of A1 Drug in Plasma of Mice,"[1]; title: oral 2 mg/kg, 24.0 h, individual animals 4-6, 2 mg/kg",0.800 ng/mL and 0.500 ng/mL
same,HOMA-IR index,[2]; 10 mg/kg gavage once a day,significantly reduced
same,energy metabolism and thermogenesis,[2]; 10 mg/kg gavage once a day,increasing energy metabolism and promoting thermogenesis
same,food intake,[2]; 10 mg/kg gavage once a day,without affecting
same,liver T-CHO,[2]; [3],significantly reduced
same,liver hydroxyproline,[2]; [3],significantly reduced
same,liver triglycerides,[2]; [3],significantly reduced
same,liver weight,[2]; [3],significantly reduced
same,liver-to-body ratio,[2]; [3],significantly reduced
same,serum ALT,[2]; [3],significantly reduced
same,serum AST,[2]; [3],significantly reduced
same,serum HDL-C,[2]; [3],significantly reduced
same,serum LDL-C,[2]; [3],significantly reduced
same,serum T-CHO,[2]; [3],significantly reduced
same,serum triglycerides,[2]; [3],significantly reduced
same,glucose tolerance (GTT),[2]; [4],significantly improved
same,insulin sensitivity (ITT),[2]; [4],significantly improved
same,fasting glucose,[2]; [5],significantly reduced
same,fasting insulin,[2]; [5],significantly reduced
same,body fat content,[2]; [6],reduced
same,body weight gain,[2]; [6],significantly slowed down
same,NAS scores,[2]; [7],significantly decreased
same,lipid accumulation in the liver,[2]; [7],ameliorating (but not significant) effect
same,liver ballooning degeneration and inflammation,[2]; [7],significantly alleviated
same,liver lipid accumulation,"[2]; Oil Red O stained sections, mainly by reducing lipid droplet size, 10 mg/kg",significantly reduced
same,liver collagen deposition,"[2]; Sirius Scarlet stained sections, 10 mg/kg",significantly reduced
same,"mRNA expression of fatty acid oxidation-related genes (Ppara, Cyp4A1, Acot1, Acox1)",[2]; [8],significantly upregulated
same,"mRNA expression of fibrosis-related genes (Asma, Tgfb, Col1A1, Col3A1, Col5a2)",[2]; [8],downregulated
same,"mRNA expression of inflammation genes (Tnfa, Il1b, Casp1, Pycard, Ccl2, Ccl3)",[2]; [8],downregulated
same,serological and hepatic biochemical indexes,"[2]; overall statement, FIG. 3",improved
same,"hepatic lipid metabolism disorders, inflammation and fibrosis","[2]; overall statement, FIG. 4",improved
same,effect on NASH,[2]; [9],significant alleviating effect
same,insulin resistance (symptoms),[2]; [9],significantly alleviate; also recorded: alleviated
same,obesity (symptoms),[2]; [9],significantly alleviate; also recorded: alleviated

# From patent US20240208954A1, “OXADIAZOLE COMPOUND, PREPARATION METHOD THEREFOR, PHARMACEUTICAL COMPOSITION AND USE THEREOF” (SHANGHAI INSTITUTE OF MATERIA MEDICA, CHINESE ACADEMY OF …, priority 2020, published 2024)
